This assay relates to panel of 55 breast cancer cell lines. The experiment in a line: Cell growth inhibition assay (Cell Titer Glo, 72 h, 9 doses; GI50, TGI, LC50). Conditions: for GI50: value is the negative log10 of mol/L. The class given is cell-based, human. (In general: In ATP-based viability assays light output follows the ATP content of the culture.)

As to `COc1cc2c(Nc3ccc(NC(=O)c4ccccc4)cc3)ncnc2cc1OCCCN1CCOCC1` [ZM447439], the GI50 came out at 5.82 (cell line AU565, censored GI50 values); 5.29 (cell line BT20, censored GI50 values); 4.20 (cell line BT474, censored GI50 values); 4.57 (cell line BT483, censored GI50 values); 5.40 (cell line CAMA1, censored GI50 values); 6.24 (cell line HCC38, censored GI50 values). In addition, the GI50 is, setting by setting: (cell line HCC70, censored GI50 values) 6.01; (cell line HCC1143, censored GI50 values) 4.98; (cell line HCC1187, censored GI50 values) 6.19; (cell line HCC1419, censored GI50 values) 5.32; (cell line HCC1428, censored GI50 values) 5.13; (cell line HCC1500, censored GI50 values) 5.28. Moreover, the GI50 (cell line HCC1937, censored GI50 values) worked out at 5.23; the GI50 (cell line HCC2185, censored GI50 values) came to 5.92; the GI50 (cell line MDAMB134VI, censored GI50 values) worked out at 4.66; the GI50 (cell line MDAMB175VII, censored GI50 values) is listed as 4.28; the GI50 (cell line MDAMB361, censored GI50 values) is given as 5.53; the GI50 (cell line MDAMB436, censored GI50 values) came out at 5.33. The same compound showed a GI50 (cell line MDAMB468, censored GI50 values) of 6.18; a GI50 (cell line SKBR3, censored GI50 values) of 4.77; a GI50 (cell line SUM52PE, censored GI50 values) of 5.40; a GI50 (cell line SUM185PE, censored GI50 values) of 4.50; a GI50 (cell line T47D, censored GI50 values) of 4.94; a GI50 (cell line UACC812, censored GI50 values) of 4.88. In addition, the GI50 is, setting by setting: (cell line ZR75B, censored GI50 values) 5.00; (cell line ZR751, censored GI50 values) 5.46.
Turning to `COc1cc2c(Nc3ccc(NC(=O)c4ccccc4)cc3)ncnc2cc1OCCCN1CCOCC1` [ZM 447439], the GI50 (cell line AU565) is 5.82; the GI50 (cell line BT20) came out at 5.29; the GI50 (cell line BT474) amounted to 4.20; the GI50 (cell line BT483) is given as 4.57; the GI50 (cell line CAMA1) is reported as 5.40; the GI50 (cell line HCC38) was determined as 6.24. Moreover, the GI50 worked out at 6.01 (cell line HCC70); 4.98 (cell line HCC1143); 6.19 (cell line HCC1187); 5.32 (cell line HCC1419); 5.13 (cell line HCC1428); 5.28 (cell line HCC1500). For the same compound, the GI50 by setting is: (cell line HCC1937) 5.23; (cell line HCC1954) 4.48; (cell line HCC2185) 5.92; (cell line HCC3153) 4.48; (cell line MDAMB134V) 4.66; (cell line MDAMB175V) 4.28. Also, the GI50 (cell line MDAMB361) came out at 5.53; the GI50 (cell line MDAMB415) came to 4.48; the GI50 (cell line MDAMB436) came out at 5.33; the GI50 (cell line MDAMB453) came to 4.45; the GI50 (cell line MDAMB468) was 6.18; the GI50 (cell line SKBR3) was found to be 4.77. For the same compound, the GI50 (cell line SUM52PE) is given as 5.40; the GI50 (cell line SUM149PT) came out at 4.18; the GI50 (cell line SUM185PE) is 4.50; the GI50 (cell line SUM1315MO) came to 4.48; the GI50 (cell line T47D) worked out at 4.94; the GI50 (cell line UACC812) was 4.88. Moreover, the GI50 was 5.00 (cell line ZR75B) and 5.46 (cell line ZR751).
As to `O=c1cc(-c2ccccc2)oc2cc(O)c(O)c(O)c12` [baicalein], for the setting “across the cell line panel”, the “variability in cell line response” value is “variability in cell line response was minimal”.
ICRF-193: the GI50 (AU565 cell line, censored GI50 values) is 6.14; the GI50 (HCC38 cell line, censored GI50 values) turned out to be 6.54; the GI50 (HCC1187 cell line, censored GI50 values) stood at 6.05; the GI50 (HCC1500 cell line, censored GI50 values) is on record as 4.66; the GI50 (HCC1954 cell line, censored GI50 values) turned out to be 4.82; the GI50 (HCC2185 cell line, censored GI50 values) is on record as 5.69. The GI50 is, setting by setting: (SKBR3 cell line, censored GI50 values) 5.22; (SUM149PT cell line, censored GI50 values) 4.75; (SUM159PT cell line, censored GI50 values) 6.38; (SUM1315MO2 cell line, censored GI50 values) 6.21; (UACC812 cell line, censored GI50 values) 4.66; (ZR75B cell line, censored GI50 values) 6.60. The GI50 was 6.07 (ZR751 cell line, censored GI50 values); 6.14 (cell line AU565); 4.38 (cell line BT20); 4.30 (cell line BT474); 4.30 (cell line CAMA1); 6.54 (cell line HCC38). The GI50 stood at 4.30 (cell line HCC1143); 6.05 (cell line HCC1187); 4.38 (cell line HCC1428); 4.66 (cell line HCC1500); 4.30 (cell line HCC1806); 4.30 (cell line HCC1937). Further, the GI50 came to 4.82 (cell line HCC1954); 5.69 (cell line HCC2185); 4.30 (cell line MDAMB436); 4.45 (cell line MDAMB453); 5.22 (cell line SKBR3); 4.75 (cell line SUM149PT). The GI50 runs as follows: (cell line SUM159PT) 6.38; (cell line SUM1315MO) 6.21; (cell line UACC812) 4.66; (cell line ZR75B) 6.60; (cell line ZR751) 6.07.
